Assay results reported in patent US10952436B2, “Microbiocidal quinoline (thio)carboxamide derivatives” (SYNGENTA PARTICIPATIONS AG, priority 2017, dated 2021).

Legend:
[1] = tested on: Fusarium culmorum; assay: whole plant or invertebrate; format: in vivo; conditions: in Triticum aestivum, read-out: control of Fusarium culmorum
[2] = tested on: Glomerella lagenarium (Colletotrichum lagenarium); assay: Glomerella lagenarium (Colletotrichum lagenarium)/Liquid Culture (Anthracnose); format: cell-based; conditions: Colletotrichum orbiculare; 200 ppm; liquid culture, compared to untreated control, 3-4 days after application; read-out: control of Glomerella lagenarium
[3] = tested on: Botryotinia fuckeliana (Botrytis cinerea); assay: Botryotinia fuckeliana (Botrytis cinerea)/Liquid Culture (Gray Mould); format: cell-based; conditions: 200 ppm, liquid culture, compared to untreated control, 3-4 days after application, read-out: control of Botryotinia fuckeliana
[4] = tested on: Fusarium culmorum; assay: microbe, parasite or virus in culture; format: cell-based; conditions: read-out: control of Fusarium culmorum
[5] = tested on: Monographella nivalis (Microdochium nivale); assay: Monographella nivalis (Microdochium nivale)/Liquid Culture (Foot Rot Cereals); format: cell-based; conditions: 200 ppm, liquid culture, compared to untreated control, 4-5 days after application, read-out: control of Monographella nivalis
[6] = tested on: Magnaporthe grisea (Pyricularia oryzae); assay: microbe, parasite or virus in culture; format: cell-based; conditions: read-out: control of Magnaporthe grisea

Compound: C=C(Cl)CC(Cc1ccccc1)C(=O)Nc1cnc2c(F)cccc2c1C (stereo not shown) [Compound E-5, 2-benzyl-4-chloro-N-(8-fluoro-4-methyl-3-quinolyl)pent-4-enamide]
- pest or weed control at 200 ppm [1]: ≥ 80%
- inhibition of growth at 200 ppm [2]: ≥ 80%
- inhibition of growth at 200 ppm [3]: ≥ 80%
- inhibition of growth at 200 ppm [4]: ≥ 80%
- melting point: 53 to 58 °C
- inhibition of growth at 200 ppm [5]: ≥ 80%

Compound: CC(C)CC(C)(Cc1ccccc1)C(=O)Nc1cnc2c(Cl)cccc2c1 (stereo not shown) [Compound E-9, 2-benzyl-N-(8-chloro-3-quinolyl)-2,4-dimethyl-pentanamide]
- inhibition of growth at 200 ppm [6]: ≥ 80%
- inhibition of growth at 200 ppm [2]: ≥ 80%
- inhibition of growth at 200 ppm [3]: ≥ 80%
- inhibition of growth at 200 ppm [4]: ≥ 80%
- melting point: 163 to 165 °C
- inhibition of growth at 200 ppm [5]: ≥ 80%

Compound: C/C=C\CC(C)(Cc1ccccc1)C(=O)Nc1cnc2c(F)cccc2c1 (stereo not shown) [Compound E-28, (Z)-2-benzyl-N-(8-fluoro-3-quinolyl)-2-methyl-hex-4-enamide]
- pest or weed control at 200 ppm [1]: ≥ 80%
- inhibition of growth at 200 ppm [6]: ≥ 80%
- inhibition of growth at 200 ppm [2]: ≥ 80%
- inhibition of growth at 200 ppm [3]: ≥ 80%
- inhibition of growth at 200 ppm [4]: ≥ 80%
- melting point: 128 to 130 °C
- inhibition of growth at 200 ppm [5]: ≥ 80%

Compound: CC(Cc1ccccc1)C(=O)Nc1cnc2c(F)cccc2c1 (stereo not shown) [Compound E-31, N-(8-fluoro-3-quinolyl)-2-methyl-3-phenyl-propanamide]
- inhibition of growth at 200 ppm [6]: ≥ 80%
- inhibition of growth at 200 ppm [2]: ≥ 80%
- inhibition of growth at 200 ppm [3]: ≥ 80%
- inhibition of growth at 200 ppm [4]: ≥ 80%
- melting point: 188 to 190 °C

Compound: COCN(C(=O)C(C)(Cc1ccccc1)CC(F)(F)F)c1cnc2c(F)cccc2c1 (stereo not shown) [Compound E-33, 2-benzyl-4,4,4-trifluoro-N-(8-fluoro-3-quinolyl)-N-(methoxymethyl)-2-methyl-butanamide]
- inhibition of growth at 200 ppm [6]: ≥ 80%
- inhibition of growth at 200 ppm [2]: ≥ 80%
- inhibition of growth at 200 ppm [3]: ≥ 80%
- inhibition of growth at 200 ppm [4]: ≥ 80%
- melting point: 108 to 110 °C

Compound: COC(Cc1ccccc1)(CC(C)C)C(=O)Nc1cc2cccc(F)c2nc1C (stereo not shown) [Compound E-37, 2-benzyl-N-(8-fluoro-2-methyl-3-quinolyl)-2-methoxy-4-methyl-pentanamide]
- pest or weed control at 200 ppm [1]: ≥ 80%
- inhibition of growth at 200 ppm [6]: ≥ 80%
- inhibition of growth at 200 ppm [2]: ≥ 80%
- inhibition of growth at 200 ppm [3]: ≥ 80%
- inhibition of growth at 200 ppm [4]: ≥ 80%
- melting point: 92 to 94 °C
- inhibition of growth at 200 ppm [5]: ≥ 80%

Compound: COC(Cc1ccccc1)(CC(C)C)C(=O)Nc1cnc2c(F)cccc2c1 (stereo not shown) [Compound E-38, 2-benzyl-N-(8-fluoro-3-quinolyl)-2-methoxy-4-methyl-pentanamide]
- pest or weed control at 200 ppm [1]: ≥ 80%
- inhibition of growth at 200 ppm [6]: ≥ 80%
- inhibition of growth at 200 ppm [2]: ≥ 80%
- inhibition of growth at 200 ppm [3]: ≥ 80%
- inhibition of growth at 200 ppm [4]: ≥ 80%
- melting point: 133 to 135 °C

Compound: CN(C(=O)C(C)(Cc1ccccc1)CC(F)(F)F)c1cnc2c(F)cccc2c1 (stereo not shown) [Compound E-42, 2-benzyl-4,4,4-trifluoro-N-(8-fluoro-3-quinolyl)-N,2-dimethyl-butanamide]
- inhibition of growth at 200 ppm [6]: ≥ 80%
- inhibition of growth at 200 ppm [2]: ≥ 80%
- inhibition of growth at 200 ppm [3]: ≥ 80%
- inhibition of growth at 200 ppm [4]: ≥ 80%
- melting point: 137 to 139 °C

Compound: COC(C)(Cc1ccccc1)C(=O)Nc1cnc2c(F)cccc2c1 (stereo not shown) [Compound E-43, N-(8-fluoro-3-quinolyl)-2-methoxy-2-methyl-3-phenyl-propanamide]
- pest or weed control at 200 ppm [1]: ≥ 80%
- inhibition of growth at 200 ppm [6]: ≥ 80%
- inhibition of growth at 200 ppm [2]: ≥ 80%
- inhibition of growth at 200 ppm [3]: ≥ 80%
- inhibition of growth at 200 ppm [4]: ≥ 80%
- melting point: 107 to 109 °C
- inhibition of growth at 200 ppm [5]: ≥ 80%

Compound: CC(C)=CC(C)(Cc1ccccc1)C(=O)Nc1cnc2c(F)cccc2c1 (stereo not shown) [Compound E-48, 2-benzyl-N-(8-fluoro-3-quinolyl)-2,4-dimethyl-pent-3-enamide]
- pest or weed control at 200 ppm [1]: ≥ 80%
- inhibition of growth at 200 ppm [6]: ≥ 80%
- inhibition of growth at 200 ppm [2]: ≥ 80%
- inhibition of growth at 200 ppm [3]: ≥ 80%
- inhibition of growth at 200 ppm [4]: ≥ 80%
- melting point: 167 to 169 °C

Compound: CC(Cc1ccccc1)(CC(F)(F)F)C(=O)Nc1cnc2cccc(F)c2c1 (stereo not shown) [Compound E-49, 2-benzyl-4,4,4-trifluoro-N-(5-fluoro-3-quinolyl)-2-methyl-butanamide]
- inhibition of growth at 200 ppm [6]: ≥ 80%
- inhibition of growth at 200 ppm [3]: ≥ 80%
- inhibition of growth at 200 ppm [4]: ≥ 80%
- melting point: 140 to 142 °C

Compound: CC(Cc1ccccc1)(CC(F)(F)F)C(=O)Nc1cnc2cc(F)ccc2c1 (stereo not shown) [Compound E-52, 2-benzyl-4,4,4-trifluoro-N-(7-fluoro-3-quinolyl)-2-methyl-butanamide]
- inhibition of growth at 200 ppm [6]: ≥ 80%
- inhibition of growth at 200 ppm [2]: ≥ 80%
- inhibition of growth at 200 ppm [3]: ≥ 80%
- inhibition of growth at 200 ppm [4]: ≥ 80%
- melting point: 180 to 182 °C
- inhibition of growth at 200 ppm [5]: ≥ 80%

Compound: C=C(CC)CC(C)(Cc1ccccc1)C(=O)Nc1cnc2c(F)cccc2c1 (stereo not shown) [Compound E-54, 2-benzyl-N-(8-fluoro-3-quinolyl)-2-methyl-4-methylene-hexanamide]
- inhibition of growth at 200 ppm [6]: ≥ 80%
- inhibition of growth at 200 ppm [2]: ≥ 80%
- inhibition of growth at 200 ppm [3]: ≥ 80%
- inhibition of growth at 200 ppm [4]: ≥ 80%
- melting point: 118 to 120 °C

Compound: O=C(Nc1cnc2c(F)cccc2c1)C(Cc1ccccc1)CC(F)(F)Cl (stereo not shown) [Compound E-58, 2-benzyl-4-chloro-4,4-difluoro-N-(8-fluoro-3-quinolyl)butanamide]
- pest or weed control at 200 ppm [1]: ≥ 80%
- inhibition of growth at 200 ppm [6]: ≥ 80%
- inhibition of growth at 200 ppm [2]: ≥ 80%
- inhibition of growth at 200 ppm [3]: ≥ 80%
- inhibition of growth at 200 ppm [4]: ≥ 80%
- melting point: 65 to 70 °C
- inhibition of growth at 200 ppm [5]: ≥ 80%

Compound: Cc1cccc2cc(NC(=O)C(C)(Cc3ccccc3)CC(F)(F)F)cnc12 (stereo not shown) [Compound E-59, 2-benzyl-4,4,4-trifluoro-2-methyl-N-(8-methyl-3-quinolyl)butanamide]
- pest or weed control at 200 ppm [1]: ≥ 80%
- inhibition of growth at 200 ppm [6]: ≥ 80%
- inhibition of growth at 200 ppm [2]: ≥ 80%
- inhibition of growth at 200 ppm [3]: ≥ 80%
- inhibition of growth at 200 ppm [4]: ≥ 80%
- melting point: 123 to 125 °C
- inhibition of growth at 200 ppm [5]: ≥ 80%

Compound: CC(Cc1ccccc1)(CC(F)(F)F)C(=O)Nc1cnc2c(F)c(F)ccc2c1 (stereo not shown) [Compound E-60, 2-benzyl-N-(7,8-difluoro-3-quinolyl)-4,4,4-trifluoro-2-methyl-butanamide]
- pest or weed control at 200 ppm [1]: ≥ 80%
- inhibition of growth at 200 ppm [6]: ≥ 80%
- inhibition of growth at 200 ppm [2]: ≥ 80%
- inhibition of growth at 200 ppm [3]: ≥ 80%
- inhibition of growth at 200 ppm [4]: ≥ 80%
- melting point: 183 to 186 °C
- inhibition of growth at 200 ppm [5]: ≥ 80%

Compound: C=C(C)CC(C)(Cc1ccccc1)C(=O)Nc1cnc2c(Br)cccc2c1 (stereo not shown) [Compound E-63, 2-benzyl-N-(8-bromo-3-quinolyl)-2,4-dimethyl-pent-4-enamide]
- pest or weed control at 200 ppm [1]: ≥ 80%
- inhibition of growth at 200 ppm [6]: ≥ 80%
- inhibition of growth at 200 ppm [3]: ≥ 80%
- inhibition of growth at 200 ppm [4]: ≥ 80%
- melting point: 165 to 169 °C

Compound: C=CCC(C)(Cc1ccccc1)C(=O)Nc1cnc2c(F)cccc2c1 (stereo not shown) [Compound E-78, 2-benzyl-N-(8-fluoro-3-quinolyl)-2-methyl-pent-4-enamide]
- pest or weed control at 200 ppm [1]: ≥ 80%
- inhibition of growth at 200 ppm [2]: ≥ 80%
- inhibition of growth at 200 ppm [3]: ≥ 80%
- inhibition of growth at 200 ppm [4]: ≥ 80%
- melting point: 146 to 149 °C
- inhibition of growth at 200 ppm [5]: ≥ 80%

Compound: Cc1c(NC(=O)C(C)(Cc2ccccc2)CC(C)C)cnc2c(F)cccc12 (stereo not shown) [Compound E-84, 2-benzyl-N-(8-fluoro-4-methyl-3-quinolyl)-2,4-dimethyl-pentanamide]
- pest or weed control at 200 ppm [1]: ≥ 80%
- inhibition of growth at 200 ppm [2]: ≥ 80%
- inhibition of growth at 200 ppm [3]: ≥ 80%
- inhibition of growth at 200 ppm [4]: ≥ 80%
- melting point: 73 to 79 °C
- inhibition of growth at 200 ppm [5]: ≥ 80%

Compound: CC(C)(C)C(Cc1ccccc1)C(=O)Nc1cnc2c(F)cccc2c1 (stereo not shown) [Compound E-88, 2-benzyl-N-(8-fluoro-3-quinolyl)-3,3-dimethyl-butanamide]
- pest or weed control at 200 ppm [1]: ≥ 80%
- inhibition of growth at 200 ppm [6]: ≥ 80%
- inhibition of growth at 200 ppm [3]: ≥ 80%
- inhibition of growth at 200 ppm [4]: ≥ 80%
- melting point: 212 to 215 °C

Compound: C=C(C)CC(Cc1ccccc1)C(=O)Nc1cc2cccc(F)c2nc1C (stereo not shown) [Compound E-92, 2-benzyl-N-(8-fluoro-2-methyl-3-quinolyl)-4-methyl-pent-4-enamide]
- pest or weed control at 200 ppm [1]: ≥ 80%
- inhibition of growth at 200 ppm [2]: ≥ 80%
- inhibition of growth at 200 ppm [3]: ≥ 80%
- inhibition of growth at 200 ppm [4]: ≥ 80%
- melting point: 97 to 99 °C

Compound: C=C(C)CC(Cc1ccccc1)C(=O)Nc1cnc2c(F)cccc2c1 (stereo not shown) [Compound E-94, 2-benzyl-N-(8-fluoro-3-quinolyl)-4-methyl-pent-4-enamide]
- inhibition of growth at 200 ppm [2]: ≥ 80%
- inhibition of growth at 200 ppm [3]: ≥ 80%
- inhibition of growth at 200 ppm [4]: ≥ 80%
- melting point: 170 to 172 °C
- inhibition of growth at 200 ppm [5]: ≥ 80%

Compound: C=C(C)C[C@](C)(Cc1ccccc1)C(=O)Nc1cnc2c(F)cccc2c1 [Compound F-22, (2R)-2-benzyl-N-(8-fluoro-3-quinolyl)-2,4-dimethyl-pent-4-enamide]
- inhibition of growth at 200 ppm [2]: ≥ 80%
- inhibition of growth at 200 ppm [3]: ≥ 80%
- inhibition of growth at 200 ppm [4]: ≥ 80%
- melting point: 133 to 135 °C
- inhibition of growth at 200 ppm [5]: ≥ 80%
